Test results published in US12178810B2 (priority 2016, dated 2024).

Experiments:
[1] = system: Healthy human male volunteers; experiment: Retrospective analysis of the Phase 1 DDI study: heart rate and blood pressure at rest; assay type: in vivo
Source text: FIG. 2. […] By ‘t’ test—Wilcoxon matched-pairs signed rank test.
(§1) Healthy human male volunteers, 18-50 years of age. A total of 14 subjects were included in the study.
(§2) Two consecutive study periods separated by a washout period of at least three days. The sequence of events was the same for all subjects.
Particularly, the effect of tesofensine-metoprolol on heart rate and blood pressure at rest, was investigated.

[2] = molecular target: T1, CYP2D6 (Homo sapiens, UniProt P10635); experiment: Phase 1 drug-drug interaction (DDI) study with metoprolol: metoprolol pharmacokinetics without and with tesofensine at steady state; assay type: in vivo; settings: metoprolol 50 mg single dose after 14 days tesofensine vs metoprolol alone
T1 construct: Healthy human male volunteers, 18-50 years of age; A total of 14 subjects were included in the study; from tissue; host or cells: in vivo, healthy human male volunteers (endogenous enzyme)
Source text: FIG. 1. PK of metoprolol after a single dosing in absence and presence of tesofensine at steady state.
as §1, §2

[3] = system: obese patients; settings: long-term treatment, corrected for placebo and diet effects; cited from earlier work
[4] = system: healthy male subjects; settings: metoprolol alone; cited from earlier work

T1 sequence (P10635 whole entry): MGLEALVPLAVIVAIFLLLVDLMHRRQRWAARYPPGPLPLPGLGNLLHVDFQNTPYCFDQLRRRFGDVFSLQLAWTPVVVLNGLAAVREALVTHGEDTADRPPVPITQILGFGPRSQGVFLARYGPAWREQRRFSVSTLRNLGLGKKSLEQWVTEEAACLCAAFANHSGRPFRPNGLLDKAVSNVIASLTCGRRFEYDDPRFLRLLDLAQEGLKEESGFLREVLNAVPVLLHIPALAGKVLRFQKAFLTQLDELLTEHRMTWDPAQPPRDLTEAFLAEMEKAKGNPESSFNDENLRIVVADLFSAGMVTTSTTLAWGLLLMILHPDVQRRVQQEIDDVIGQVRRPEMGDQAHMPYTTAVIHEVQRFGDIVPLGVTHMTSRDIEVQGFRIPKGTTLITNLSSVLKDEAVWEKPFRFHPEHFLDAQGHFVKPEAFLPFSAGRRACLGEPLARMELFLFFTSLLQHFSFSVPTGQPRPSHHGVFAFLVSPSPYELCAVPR

Row | SMILES | heart rate after 14 days of tesofensine vs prelevel ([1]; tesofensine only, day 14, p<0.01 vs prelevel) | diastolic BP after 14 days of tesofensine treatment ([1]; tesofensine only, vs pre-treatment) | systolic BP after 14 days of tesofensine treatment ([1]; tesofensine only, vs pre-treatment, not significant) | effect on metoprolol Cmax [2] | effect on metoprolol Tmax [2] | weight loss [3] | decrease in supine diastolic blood pressure [4] | decrease in supine systolic blood pressure [4] | effect on tesofensine-induced increase in heart rate, 7 hours after single metoprolol dose ([1]; day 14, tesofensine treated subjects, 7 hours after metoprolol) | effect on heart rate, ~24 hours after single metoprolol dose ([1]; day 15, tesofensine treated subjects, ~24 hours after metoprolol)
1 | CCOC[C@@H]1[C@@H](c2ccc(Cl)c(Cl)c2)C[C@@H]2CC[C@H]1N2C [tesofensine, (1R,2R,3S,5S)-3-(3,4-dichlorophenyl)-2-(ethoxymethyl)-8-methyl-8-azabicyclo[3.2.1]octane] | Increase in heart rate | essentially not altered | increase systolic BP slightly | no effect | no effect | about 10% |  |  |  | 
2 | COCCc1ccc(OCC(O)CNC(C)C)cc1 (stereo not shown) [metoprolol, 1-(Isopropylamino)-3-[4-(2-methoxyethyl)-phenoxy]-propan-2-ol] |  |  |  |  |  |  | about 4 mmHg | about 4 mmHg | normalize the tesofensine-induced increase in heart rate | disappeared
